Measurements taken from patent publication US9732070B2, “Protein kinase C inhibitors and uses thereof” (Rigel Pharmaceuticals, Inc., priority 2009, dated 2017).

What follows are compounds tested on Human primary T cells (assay: IL-2 ELISA, human primary T cell, anti-CD3+CD28 stimulation). Details: T-cell; IL-2 quantified by ELISA; human primary T cells stimulated with αCD3 and αCD28, 24 hours.
Format: cell-based
Description: Human primary T cell isolation and culture: Human primary T cells were prepared as follows. Whole blood was obtained from a healthy volunteer, mixed 1:1 with PBS, layered on to Ficoll Hypaque (Amersham Pharmacia Biotech, Piscataway, N.J., Catalog #17-1440-03) in 2:1 blood/PBS:ficoll ratio and centrifuged for 30 minutes at 4° C. at 1750 rpm. The cells at the serum: ficoll interface were recovered and washed twice with 5 volumes of PBS. These freshly isolated human peripheral blood mononuclear cells were cultured in Yssel's medium containing 40 U/mL IL2 in a flask pre-coated with 1 μg/mL αCD3 and 5 μg/mL αCD28 (Anti-Human CD3, BD Pharmingen Catalog #555336, Anti-Human CD28, Beckman Coulter Catalog #IM1376). The cells were stimulated for 3-4 days, then transferred to a fresh flask and maintained in RPMI (RPMI-1640 with L-Glutamine; Mediatech, Inc., Herndon Va., cat. #10-040-CM) with 10% FBS and 40 U/mL IL-2. The primary T-cells were then washed twice with PBS to remove the IL-2.
Primary T cell stimulation and IL2 ELISA: Human primary T cells (100,000 cells per well) were pre-incubated with or without test compound in Yssel's medium for 1 hour at 37° C. Cells were then stimulated by transferring them to round-bottom 96-well plates pre-coated with 1 μg/ml αCD3 and 5 μg/ml αCD28. For counter assay, cells were instead stimulated by adding 8× stock solutions of PMA and ionomycin in Yssels (for final concentrations of 0.5 ng/ml PMA and 0.1 uM ionomycin, both from Calbiochem). Cells were incubated at 37° C. for 24 hours before 100 μL supernatants were harvested for quantification of IL-2 by ELISA using Human IL-2 Duoset ELISA Kit from R and D Systems, Cat. # DY202E.

| SMILES | IC50 |
| --- | --- |
| Cn1nnn(-c2cc(Nc3ncc(F)c(NC4CC(C)(C)NC(C)(C)C4)n3)ccc2Cl)c1=O [I-30, N2-{4-chloro-[3-(4-methyl)-1,2,3,4-tetrazol-5-one-1-yl]}phenyl-5-fluoro-N4-(2,2,6,6-tetramethylpiperidin-4-yl)-2,4-pyrimidinediamine] | < 500 nM |
| COc1cc(Nc2ncc(F)c(NC3CC(C)(C)N(C)C(C)(C)C3)n2)cc(-n2nnn(C)c2=O)c1 [I-31, N2-{5-methody-[3-(4-methyl)-1,2,3,4-tetrazol-5-one-1-yl]}phenyl-5-fluoro-N4-(1,2,2,6,6-pentamethylpiperidin-4-yl)-2,4-pyrimidinediamine] | < 500 nM |
| COc1cc(Nc2ncc(F)c(NC3CC(C)(C)NC(C)(C)C3)n2)cc(-n2nnn(C)c2=O)c1 [I-32, N2-{5-methody-[3-(4-methyl)-1,2,3,4-tetrazol-5-one-1-yl]}phenyl-5-fluoro-N4-(2,2,6,6-tetramethylpiperidin-4-yl)-2,5-pyrimidinediamine] | < 500 nM |
| Cn1nnn(-c2cc(Nc3ncc(F)c(NC4CC(C)(C)NC(C)(C)C4)n3)ccc2C2CC2)c1=O [I-33, N2-{4-cyclopropyl-[3-(4-methyl)-1,2,3,4-tetrazol-5-one-1-yl]}phenyl-5-fluoro-N4-(2,2,6,6-tetramethylpiperidin-4-yl)-2,4-pyrimidinediamine] | < 500 nM |
| CN1C(C)(C)CC(Nc2nc(Nc3ccc(C4CC4)c(-n4nnn(C)c4=O)c3)ncc2F)CC1(C)C [I-34, N2-{4-cyclopropyl-[3-(4-methyl)-1,2,3,4-tetrazol-5-one-1-yl]}phenyl-5-fluoro-N4-(1,2,2,6,6-pentamethylpiperidin-4-yl)-2,4-pyrimidinediamine] | < 500 nM |

Continued, values first:

| IC50 | SMILES |
| --- | --- |
| < 500 nM | Cn1nnn(-c2cc(Nc3ncc(F)c(NC4CC(C)(C)NC(C)(C)C4)n3)cc(C3CC3)c2)c1=O [I-35, N2-{5-cyclopropyl-[3-(4-methyl)-1,2,3,4-tetrazol-5-one-1-yl]}phenyl-5-fluoro-N4-(2,2,6,6-tetramethylpiperidin-4-yl)-2,4-pyrimidinediamine] |
| < 500 nM | CN1C(C)(C)CC(Nc2nc(Nc3cc(C4CC4)cc(-n4nnn(C)c4=O)c3)ncc2F)CC1(C)C [I-36, N2-{5-cyclopropyl-[3-(4-methyl)-1,2,3,4-tetrazol-5-one-1-yl]}phenyl-5-fluoro-N4-(1,2,2,6,6-pentamethylpiperidin-4-yl)-2,4-pyrimidinediamine] |
| 510 to 2990 nM | Cn1nnn(-c2cc(Cl)cc(Nc3ncc(F)c(NC4CC(C)(C)NC(C)(C)C4)n3)c2)c1=O [I-37, N2-{5-chloro-[3-(4-methyl)-1,2,3,4-tetrazol-5-one-1-yl]}phenyl-5-fluoro-N4-(2,2,6,6-tetramethylpiperidin-4-yl)-2,4-pyrimidinediamine] |
| < 500 nM | Cn1nnn(-c2cc(Nc3ncc(F)c(NC4CC(C)(C)NC(C)(C)C4)n3)cc(C(F)(F)F)c2Cl)c1=O [I-38, N2-{4-chloro-5-trifluoromethyl-[3-(4-methyl)-1,2,3,4-tetrazol-5-one-1-yl]}phenyl-5-fluoro-N4-(2,2,6,6-tetramethylpiperidin-4-yl)-2,4-pyrimidinediamine] |
| < 500 nM | Cn1nnn(-c2cc(Nc3ncc(F)c(NC4CC(C)(C)NC(C)(C)C4)n3)cc(C(F)(F)F)c2C2CC2)c1=O [I-39, N2-{4-cyclopropyl-5-trifluoromethyl-[3-(4-methyl)-1,2,3,4-tetrazol-5-one-1-yl]}phenyl-5-fluoro-N4-(2,2,6,6-tetramethylpiperidin-4-yl)2,5-pyrimidinediamine] |
| < 500 nM | CN1C(C)(C)CC(Nc2nc(Nc3cc(-n4nnn(C)c4=O)c(C4CC4)c(C(F)(F)F)c3)ncc2F)CC1(C)C [I-40, N2-{4-cyclopropyl-5-trifluoromethyl-[3-(4-methyl)-1,2,3,4-tetrazol-5-one-1-yl]}phenyl-5-fluoro-N4-(1,2,2,6,6-pentamethylpiperidin-4-yl)-2,4-pyrimidinediamine] |
